Tested on: yeast genes (level of expressed mRNA)
Test: DNA chip analysis of expressed mRNA of yeast genes after 2 h culture with a toxic chemical substance
Type: cell-based, Saccharomyces cerevisiae S288C
Conditions: for The level of expressed mRNA in the presence of chemical substance/ (ratio to absence of chemical substance): stress protein genes, DNA chip
Procedure: Yeast (Saccharomyces cerevtisiae S288C (α SUC2mal mel gap2 CUP1)) were cultured at 25° C. on YPD medium (yeast extract 1%, polypepton 2%, glucose 2%). One of toxic chemical substances was added to the cell at logarithmic growth phase, and the cell was further cultured for two hours. Cell was cultured without any chemical substance in the same condition, and was used as control. Concentrations of the chemical substances were defined to inhibit the growth of the yeast but not lead to death.
After the completion of cultivation, the culture was centrifuged to collect the cells. To the cells, sodium acetate buffer (50 mM sodium acetate, 10 mM EDTA, 1% SDS) was added, and the mixture was shaken at 65° C. for five minutes, followed by returning to room temperature, and obtaining the supernatant, which procedure was repeated two times. To the supernatant, ½ amount of a solution of phenol/chloroform was added, and the mixture was centrifuged to give a supernatant, which was added with an equal amount of chloroform, and the mixture was centrifuged to give a supernatant. To the supernatant, an equal amount of isopropanol containing 0.3 M sodium acetate was added, and the mixture was allowed to stand at room temperature for 30 minutes, after which the mixture was centrifuged to give a sediment of the whole RNAs. Seventy % ethanol was added to the sediment, and the mixture was again centrifuged to give a sediment, which was then dried and dissolved in water. mRNA was isolated from the whole RNAs as followings. In view of the fact that a poly A chain is attached to the 3′ terminus of mRNA, a polynucleotide having a poly T structure which was immobilized on the surface of latex beads was used to trap the mRNA, and then the mRNA was washed and eluted with spine column (Oligotex-dT30<Super>mRNA Purification Kit, Takara). Reverse transcription of the mRNA was conducted with a reverse transcriptase (Super Script II Reverse Transcriptase; catalogue No. 18064-014, GibcoBRL) using fluorescence-labeled nucleotides to give cDNAs that were introduced with Cy3-dUTP or Cy5-dUTP during the reverse transcription.
The labeled cDNAs were dissolved in TE buffer (10 mM Tris-HCl/1 mM EDTA, pH8.0), and the solution was dropped on the DNA chip containing the whole genes of yeast (DNA Chip Research Inc. Japan) so that the cDNAs were hybridized on the DNA chip at 65° C. for over 12 hours. The fluoresces intensity of the DNA chip was read with a scanner, and the ratio relative to the fluorescence intensity resulting from the absence of chemical substance was estimated as the following, which is shown in Tables 1 to 9: [formula]
In the Tables, “Intensity” indicated in the rightmost column is a value of the level of expressed mRNA of each gene in control cells as divided by the average level of the expressions of the whole genes.

With `S=C([S-])NCCNC(=S)[S-].[Zn+2]` [(11), zinc N,N′-ethylenebis(dithiocarbamate)] the “The level of expressed mRNA in the presence of chemical substance/The level of expressed mRNA in the absence of chemical substance” value (yeast gene YIL123W) was 1.2, the “The level of expressed mRNA in the presence of chemical substance/The level of expressed mRNA in the absence of chemical substance” value (yeast gene YIL140W) was 0.9 and the “The level of expressed mRNA in the presence of chemical substance/ (in its absence), gene YJL070C” value (yeast gene YJL070C, ratio of DNA chip fluorescence intensity to that without chemical substance) was 1.3. For the same compound, the “The level of expressed mRNA in the presence of chemical substance/The level of expressed mRNA in the absence of chemical substance” value (yeast gene YJL073W) was 0.5, the “The level of expressed mRNA in the presence of chemical substance/The level of expressed mRNA in the absence of chemical substance” value (yeast gene YJL089W) was 0.6 and the “The level of expressed mRNA in the presence of chemical substance/ (ratio to absence), gene YJL096W” value (yeast gene YJL096W, mitochondria-located protein genes, 2 h culture with chemical) was 1.2. The “The level of expressed mRNA in the presence of chemical substance/The level of expressed mRNA in the absence of chemical substance” value (yeast gene YJL116C) was 2.9, the “The level of expressed mRNA in the presence of chemical substance/ (ratio to absence of chemical substance)” value (yeast gene YJL158C) was 1.9 and the “The level of expressed mRNA in the presence of chemical substance/ (in its absence), gene YJL167W” value (yeast gene YJL167W, ratio of DNA chip fluorescence intensity to that without chemical substance) was 1.2. The “The level of expressed mRNA in the presence of chemical substance/ (ratio to absence), gene YJL180C” value (yeast gene YJL180C, mitochondria-located protein genes, 2 h culture with chemical) was 1.4, the “The level of expressed mRNA in the presence of chemical substance/ (in its absence), gene YJL216C” value (yeast gene YJL216C, ratio of DNA chip fluorescence intensity to that without chemical substance) was 1.1 and the “The level of expressed mRNA in the presence of chemical substance/The level of expressed mRNA in the absence of chemical substance” value (yeast gene YJR004C) was 0.7. For the same compound, the “The level of expressed mRNA in the presence of chemical substance/The level of expressed mRNA in the absence of chemical substance” value (yeast gene YJR086W) was 1.0, the “The level of expressed mRNA in the presence of chemical substance/ (ratio to absence of chemical substance)” value (yeast gene YJR090C) was 0.4 and the “The level of expressed mRNA in the presence of chemical substance/The level of expressed mRNA in the absence of chemical substance” value (yeast gene YKL008C) was 1.5. The “The level of expressed mRNA in the presence of chemical substance/The level of expressed mRNA in the absence of chemical substance” value (yeast gene YKL013C) was 1.1, the “The level of expressed mRNA in the presence of chemical substance/The level of expressed mRNA in the absence of chemical substance” value (yeast gene YKL039W) was 1.0 and the “The level of expressed mRNA in the presence of chemical substance/The level of expressed mRNA in the absence of chemical substance” value (yeast gene YKL041W) was 1.2. The “The level of expressed mRNA in the presence of chemical substance/The level of expressed mRNA in the absence of chemical substance” value (yeast gene YKL096W) was 3.5, the “The level of expressed mRNA in the presence of chemical substance/The level of expressed mRNA in the absence of chemical substance” value (yeast gene YKL139W) was 1.4 and the “The level of expressed mRNA in the presence of chemical substance/ (ratio to absence of chemical substance)” value (yeast gene YKL164C) was 1.0. For the same compound, the “The level of expressed mRNA in the presence of chemical substance/The level of expressed mRNA in the absence of chemical substance” value (yeast gene YKL165C) was 0.3, the “The level of expressed mRNA in the presence of chemical substance/The level of expressed mRNA in the absence of chemical substance” value (yeast gene YKL193C) was 1.7 and the “The level of expressed mRNA in the presence of chemical substance/ (in its absence), gene YKR009C” value (yeast gene YKR009C, ratio of DNA chip fluorescence intensity to that without chemical substance) was 1.2. The “The level of expressed mRNA in the presence of chemical substance/ (in its absence), gene YKR034W” value (yeast gene YKR034W, ratio of DNA chip fluorescence intensity to that without chemical substance) was 0.0, the “The level of expressed mRNA in the presence of chemical substance/ (ratio to absence of chemical substance)” value (yeast gene YKR053C) was 0.5 and the “The level of expressed mRNA in the presence of chemical substance/ in its absence, gene YKR058W” value (yeast gene YKR058W, energy system protein genes, 2 h culture with the chemical, ratio to control without chemical) was 1.5. For the same compound, the “The level of expressed mRNA in the presence of chemical substance/ (in its absence), gene YLR006C” value (yeast gene YLR006C, ratio of DNA chip fluorescence intensity to that without chemical substance) was 1.5, the “The level of expressed mRNA in the presence of chemical substance/ (ratio to absence of chemical substance)” value (yeast gene YLR006C) was 1.5 and the “The level of expressed mRNA in the presence of chemical substance/The level of expressed mRNA in the absence of chemical substance” value (yeast gene YLR120C) was 1.2. The “The level of expressed mRNA in the presence of chemical substance/The level of expressed mRNA in the absence of chemical substance” value (yeast gene YLR136C) was 1.2, the “The level of expressed mRNA in the presence of chemical substance/The level of expressed mRNA in the absence of chemical substance” value (yeast gene YLR178C) was 3.7 and the “The level of expressed mRNA in the presence of chemical substance/The level of expressed mRNA in the absence of chemical substance” value (yeast gene YLR250W) was 1.4. The “The level of expressed mRNA in the presence of chemical substance/ in its absence, gene YLR295C” value (yeast gene YLR295C, energy system protein genes, 2 h culture with the chemical, ratio to control without chemical) was 1.3, the “The level of expressed mRNA in the presence of chemical substance/ (ratio to absence), gene YLR295C” value (yeast gene YLR295C, mitochondria-located protein genes, 2 h culture with chemical) was 1.3 and the “The level of expressed mRNA in the presence of chemical substance/The level of expressed mRNA in the absence of chemical substance” value (yeast gene YLR327C) was 5.0. The “The level of expressed mRNA in the presence of chemical substance/ (in its absence), gene YLR351C” value (yeast gene YLR351C, ratio of DNA chip fluorescence intensity to that without chemical substance) was 1.1, the “The level of expressed mRNA in the presence of chemical substance/The level of expressed mRNA in the absence of chemical substance” value (yeast gene YLR356W) was 3.1 and the “The level of expressed mRNA in the presence of chemical substance/The level of expressed mRNA in the absence of chemical substance” value (yeast gene YLR362W) was 1.5. The “The level of expressed mRNA in the presence of chemical substance/ (in its absence), gene YLR375W” value (yeast gene YLR375W, ratio of DNA chip fluorescence intensity to that without chemical substance) was 1.6, the “The level of expressed mRNA in the presence of chemical substance/The level of expressed mRNA in the absence of chemical substance” value (yeast gene YLR391W) was 1.4 and the “The level of expressed mRNA in the presence of chemical substance/The level of expressed mRNA in the absence of chemical substance” value (yeast gene YLR429W) was 0.9. The “The level of expressed mRNA in the presence of chemical substance/ in its absence, gene YML129C” value (yeast gene YML129C, energy system protein genes, 2 h culture with the chemical, ratio to control without chemical) was 1.2, the “The level of expressed mRNA in the presence of chemical substance/ (ratio to absence), gene YML129C” value (yeast gene YML129C, mitochondria-located protein genes, 2 h culture with chemical) was 1.2 and the “The level of expressed mRNA in the presence of chemical substance/The level of expressed mRNA in the absence of chemical substance” value (yeast gene YMR004W) was 2.5. For the same compound, the “The level of expressed mRNA in the presence of chemical substance/ (ratio to absence), gene YMR023C” value (yeast gene YMR023C, mitochondria-located protein genes, 2 h culture with chemical) was 0.8, the “The level of expressed mRNA in the presence of chemical substance/The level of expressed mRNA in the absence of chemical substance” value (yeast gene YMR094W) was 1.0 and the “The level of expressed mRNA in the presence of chemical substance/The level of expressed mRNA in the absence of chemical substance” value (yeast gene YMR104C) was 1.1. The “The level of expressed mRNA in the presence of chemical substance/ (ratio to absence of chemical substance)” value (yeast gene YMR186W) was 1.1, the “The level of expressed mRNA in the presence of chemical substance/The level of expressed mRNA in the absence of chemical substance” value (yeast gene YMR219W) was 1.5 and the “The level of expressed mRNA in the presence of chemical substance/The level of expressed mRNA in the absence of chemical substance” value (yeast gene YMR226C) was 1.4. For the same compound, the “The level of expressed mRNA in the presence of chemical substance/ in its absence, gene YMR267W” value (yeast gene YMR267W, energy system protein genes, 2 h culture with the chemical, ratio to control without chemical) was 1.0, the “The level of expressed mRNA in the presence of chemical substance/ (ratio to absence), gene YMR267W” value (yeast gene YMR267W, mitochondria-located protein genes, 2 h culture with chemical) was 1.0 and the “The level of expressed mRNA in the presence of chemical substance/ in its absence, gene YMR267W” value (yeast gene YMR267W, ratio of DNA chip fluorescence intensity to that without chemical substance) was 1.0. The “The level of expressed mRNA in the presence of chemical substance/The level of expressed mRNA in the absence of chemical substance” value (yeast gene YMR275C) was 1.1, the “The level of expressed mRNA in the presence of chemical substance/The level of expressed mRNA in the absence of chemical substance” value (yeast gene YMR276W) was 1.9 and the “The level of expressed mRNA in the presence of chemical substance/ (in its absence), gene YMR278W” value (yeast gene YMR278W, ratio of DNA chip fluorescence intensity to that without chemical substance) was 1.1.

Source: US20050112573A1, “Method of detecting toxic substance” (priority 2001, published 2005)
